# According to patent US8354455B2, “Prodrugs containing novel bio-cleavable linkers” (Piramal Enterprises Limited and Apparao Satyam, priority 2004, dated 2013):
# Where two headings read alike, the source gives them in different places.
# Columns and labels:
# [1] = test system: carrageenan-induced rat paw edema; assay: Carrageenan-induced rat paw edema; type: in vivo; conditions: 75 mg/kg equivalent dose of aspirin, p.o.
# [2] = In vitro plasma stability; type: in vitro ADME; conditions: rat plasma, 37° C., 30 minutes incubation, HPLC
# Text: The compounds were extracted back into acetonitrile with rigorous vortex.
# rats = conditions: rat, in vivo, po
# [3] = rat, in vivo, po
compound,measurement,setting,value
CC(=O)Oc1ccccc1C(=O)OCCSSCCO[N+](=O)[O-] [I-C1-NOPD4],anti-inflammatory activity (in words),[1],significant activity during the first two hours
same,Rat paw edema (% inhibition) 1 hour,"[1]; Mean ± SEM, n = 6",42.4 ± 13.3%
same,Rat paw edema (% inhibition) 2 hour,"[1]; Mean ± SEM, n = 6",44.9 ± 12.9%
same,Rat paw edema (% inhibition) 4 hour,"[1]; Mean ± SEM, n = 6",24.3 ± 7.7%
same,Rat paw edema (% inhibition) 6 hour,"[1]; Mean ± SEM, n = 6",8.6 ± 5.1%
same,release of parent drug / conversion to salicylate (in words),[2],converting to the expected metabolite (salicylate)
same,ulcers (in words),rats; 100 mg/kg,none of the animals treated with the test compounds showed any signs of development of ulcers
same,salicylate release / absorption profile (in words),"[3]; both, Sprague-Dawley, 35 mg/kg",released in a sustained and controlled manner starting from 1 hour through 12 hours
CC(=O)Oc1ccccc1C(=O)NC(=O)OCCSSCCO[N+](=O)[O-] [I-C1-NOPD5A],anti-inflammatory activity (in words),[1],negligible anti-inflammatory activity
same,release of parent drug / conversion to salicylate (in words),[2],converting to the expected metabolite (salicylate)
same,ulcers (in words),rats; 200 mg/kg,none of the animals treated with the test compounds showed any signs of development of ulcers
CC(=O)Oc1ccccc1C(=O)[N-]C(=O)OCCSSCCO[N+](=O)[O-].[Na+] [I-C1-NOPD5B],ulcers (in words),rats; 200 mg/kg,none of the animals treated with the test compounds showed any signs of development of ulcers
same,bioavailability compared with parent drug (in words),[3],as bioavailable as its parent drug
CC(=O)Oc1ccccc1C(=O)NCCSSCCO[N+](=O)[O-] [I-C1-NOPD6],ulcers (in words),rats; 100 mg/kg,none of the animals treated with the test compounds showed any signs of development of ulcers
same,prodrug or salicylate found in plasma (in words),[3]; 35 mg/kg,neither the prodrug nor the salicylate was found in the plasma
